Data as given in patent US6458872B1, “Benzotriazole UV absorbers having enhanced durability” (Ciba Specialty Chemicals Corporation, priority 1997, dated 2002).
Entries after “also recorded” stand apart in the source; their conditions may differ. One block for each compound: values may come before it.

Experiments:
[1] = Durability in polycarbonate film, 2000 hours (Example 81); type: physicochemical; details: for % Loss / Absorbance (max) Loss units: 2000 hrs; for % Loss / Absorbance (max) Loss units / Absorbance (max) 2000 hrs: BB 2.19 wt %, J 1.81 wt %; for Absorbance (max) 0 hrs: BB 2.19 wt % (352 nm), J 1.81 wt % (344 nm)
Description: The durability of representative benzotriazoles in thermoplastic substrates is determined by incorporating various test compounds into solvent cast films of poly(vinyl chloride), polycarbonate and polystyrene resins. The free standing films are mounted into cardboard holders, secured in metal frames and exposed in an Atlas […] […] Loss of UV absorber is determined by monitoring the loss of diagnostic UV absorption as described earlier. Performance is measured by a change in color or the physical integrity of the film. Polycarbonate flake (LEXAN® 145, General Electric) is dissolved in methylene chloride at room temperature along with between 1 and 3% by weight of test benzotriazole, based on the polycarbonate. Films are cast using a calibrated drawdown bar to prepare 1 mil thick film after drying. […] Weather-meter.

[2] = UV absorption data (Example 74); type: physicochemical; design: ε @ λ max: unit not given beside the values
[3] = UV absorption data (Example 74); type: physicochemical; details: for Absorbance @ 375 nm: 20 mg/l concentrations, not the molar extinction values
Description: In the following examples the absorbance at 375 nm is reported for 20 mg/l concentrations. This is not the molar extinction values.

[4] = Yellowness color of solutions in butyl acetate, Macbeth Color-Eye (Example 75); type: physicochemical; details: 30 mg/100 mL in butyl acetate; for DE: corresponding Yellowness Index value; for b: yellowness, Macbeth Color-Eye
Description: The following examples show the difference in color between some of the instant compounds as measured by a Macbeth Color-Eye instrument at a concentration of 30 mg/100 mL in butyl acetate. […] In the table, the compounds are listed by increasing b value. The instrument measures yellowness as b and DE is the corresponding Yellowness Index value.

[5] = Loss of UV absorber from high solids thermoset acrylic clear coat, Xenon Arc Weather-Ometer (Example 77); type: physicochemical; details: after 1211 hours Xenon arc exposure; clear coat with 1% hindered amine; UV absorber at 5 mmol % by weight
Description: To ascertain the effect on thermal durability and loss rate from a high solids thermoset acrylic coating of various 2H-benzotriazole UV absorbers substituted by a variety of electron withdrawing and electron donating groups, the following tests are carried out.
A high solids thermoset acrylic clear coat is prepared by mixing an experimental acrylic polyol resin and hexamethoxymethylmelamine (Resimene® 747, Monsanto) at a solids ratio of 60/40. The dodecylbenzene sulfonic acid catalyst (Nacure® 5225; King Industries) is added at 0.70% by weight. A flow aid Modaflow® (Monsanto) is added at 0.25% by weight to form a model acrylic melamine resin system.
The model clear coat is reduced with xylene to a viscosity of 26-27 second using a Zahn #2 cup and applied via a conventional air spray at 50 psi (3.5 Kg/cm^2) over a 1″×3″ (2.54 cm×7.62 cm) quartz slide. Cure is achieved by baking the slide for 30 minutes at 260° F. (127° C.). The clear coat is stabilized with 1% by weight of a hindered amine light stabilizer, bis-(1-octyloxy-2,2,6,6-tetramethylpiperidin-4-yl)sebacate, (TINUVIN® 123, Ciba-Geigy). The various test benzotriazole UV absorbers are incorporated at the 5 mmol % by weight in the clear coat. The film thickness on the quartz slides range from 1.15 to 1.41 mils (0.029 to 0.036 mm).
The films on the quartz slides are weathered according to the following conditions in Xenon Arc Weather-Ometer with a controlled irradiance at 6500 W, using inner quartz and outer borosilicate S-type filter. The irradiation cycle is as follows: 40 minutes of straight irradiation with no water spray, followed by 20 minutes of light plus front spray, followed by 60 minutes of light irradiation and finally by 60 minutes dart plus rear spray (condensation). The setting is at 0.55 W/M^2 at 340 nm, 1.98 kJ/hour. In the light cycle the black panel temperature is controlled at 70±2° C. The relative humidity in the light cycle is in the range of 50-55% and in the dark cycle 100%. The absorbance of the long wavelength UV band as a function of Xenon arc weathering hours are recorded in the table below.
To follow the loss of UV absorbers from the clear coats, UV spectra are measured initially and after weathering at regular time intervals. The UV spectrophotometer measures absorbance linearly up to 5.5 absorbance units using a reference beam attenuation technique.
This is tested by following the ratio of absorbance of the band at about 300 nm and the band at about 340 nm.
The data in the table below are based on formula A after 1211 hours of exposure of the clear coats containing the test benzotriazole UV absorbers.

[6] = Loss of UV absorber from high solids thermoset acrylic melamine clear coat, Xenon-Arc X180 cycle (Example 78); type: physicochemical
Description: Following the general procedure of Example 77, a number of additional benzotriazole test compounds are incorporated into a high solids thermoset acrylic melamine resin at such concentrations between 1.93 and 3% by weight to give equal molar concentrations of test benzotriazole in equal film thickness, and sufficient to give a starting absorbance of approximately 2.0 absorbance units.
The test discs are exposed in a Xenon-Arc Weather-Ometer at X180 cycle (0.45 Watts/M^2). The initial UV absorbance is measured followed by measurements at roughly 250 hour intervals for the first 2000 hours and every 500 hours thereafter. Each clear coat also contains 1% by weight of a hindered amine light stabilizer, bis-(1-octyloxy-2,2,6,6-tetramethylpiperidin-4-yl) sebacate, as well.

[7] = Loss of UV absorber from high solids thermoset acrylic melamine resin, 1002 hours (Example 79); type: physicochemical; details: 1002 hours exposure; starting absorbance approximately 2.0
Description: Following the general procedure of Example 77, representative benzotriazole test compounds are incorporated into a high solids thermoset acrylic melamine resin at concentrations between 1.93 and 3% by weight to give equal molar concentrations of the test benzotriazole in equal film thickness and sufficient to give a starting absorbance of approximately 2.0 absorbance units. The test samples are exposed as described in Example 77 for 1002 hours.

[8] = after 1253 hours of exposure, starting absorbance approximately 2.0, 1% hindered amine

Compound: CC(C)(C)CC(C)(C)c1ccc(O)c(-n2nc3ccc(C(F)(F)F)cc3n2)c1 [BB, 5-trifluoromethyl-2-(2-hydroxy-5-tert-octylphenyl)-2H-benzotriazole]
- % Loss [1]: 0.6%
- Absorbance (max) Loss units [1]: 0.016
- Absorbance (max) 0 hrs [1]: 2.654
- Absorbance (max) 2000 hrs [1]: 2.638
- ε @ λ max [2]: 14,000
- λ max nm [2]: 348 nm
- Absorbance @ 375 nm [3]: 0.33
- DE [4]: 0.27
- b [4]: 0.20

- ε @ λ max [2]: 20,700
- λ max nm [2]: 328 nm
- Absorbance @ 375 nm [3]: 0.03
- red region absorbance ([3]; in words, upper regions (above 350 nm) of the UV spectra): poor red region absorbance
- melting point: 119 to 120 °C
Compound: Oc1ccc(C(F)(F)F)cc1-n1nc2ccccc2n1 [EE, 2-(2-hydroxy-5-trifluoromethylphenyl)-2H-benzotriazole]

- melting point: 166 °C
Compound: CC(C)(C)c1cc(CCC(=O)O)cc(-n2nc3ccc(C(F)(F)F)cc3n2)c1O [Example 39, 3-(5-Trifluoromethyl-2H-benzotriazol-2-yl)-5-tert-butyl-4-hydroxyhydrocinnamic Acid]

- % Loss [1]: 7.5%
- Absorbance (max) Loss units [1]: 0.184
- Absorbance (max) 0 hrs [1]: 2.454
- Absorbance (max) 2000 hrs [1]: 2.270
- Units Absorbance Loss [5]: 0.4134
Compound: CC(C)(C)CC(C)(C)c1ccc(O)c(-n2nc3ccccc3n2)c1 [J]

Compound: CC(C)(C)CC(C)(C)c1cc(-n2nc3ccccc3n2)c(O)c(C(C)(C)c2ccccc2)c1 [Q, 2-(2-hydroxy-3-α-cumyl-5-tert-octylphenyl)-2H-benzotriazole]
- Units Absorbance Loss [6, 8]: 0.2351
- Units Absorbance Loss ([6]; after 1264 hours of exposure): 0.2293
- Units Absorbance Loss ([6]; after 1489 hours of exposure): 0.287
- Units Absorbance Loss ([6]; after 1518 hours of exposure): 0.2662
- Units Absorbance Loss ([6]; after 2521 hours of exposure): 0.4054
- ε @ λ max [2]: 16,500
- λ max nm [2]: 345 nm
- Absorbance @ 375 nm [3]: 0.28
- Units Absorbance Loss [5]: 0.2492
- DE [4]: 0.07
- b [4]: −0.02
- Units of Absorbance Loss [7]: 0.28

Compound: CC(C)(C)CC(C)(C)c1cc(-n2nc3ccc(C(F)(F)F)cc3n2)c(O)c(C(C)(C)c2ccccc2)c1 [S, 5-trifluoromethyl-2-(2-hydroxy-3-α-cumyl-5-tert-octylphenyl)-2H-benzotriazole]
- Units Absorbance Loss [6, 8]: 0.1271
- Units Absorbance Loss ([6]; after 1264 hours of exposure): 0.0921
- Units Absorbance Loss ([6]; after 1489 hours of exposure): 0.1547
- Units Absorbance Loss ([6]; after 1518 hours of exposure): 0.1116
- Units Absorbance Loss ([6]; after 2521 hours of exposure): 0.2192
- durability (low loss rate absorbance values after exposure) ([6]; in words, summary of the tables of Example 78): significantly more durable; also recorded: especially durable
- ε @ λ max [2]: 15,000
- λ max nm [2]: 348 nm
- Absorbance @ 375 nm [3]: 0.35
- DE [4]: 1.28
- b [4]: 1.05

Compound: CCCCOc1ccc(-n2nc3ccccc3n2)c(O)c1 [Z, 2-(2-hydroxy-4-n-butoxyphenyl)-2H-benzotriazole]
- Units of Absorbance Loss [7]: 1.58
